The values that follow come from paper PMC11647902, “Design, Synthesis, and Biological Evaluation of [1,2,5]Oxadiazolo[3,4-b]pyridin-7-ol as Mitochondrial Uncouplers for the Treatment of Obesity and Metabolic Dysfunction-Associated Steatohepatitis” (Journal of Medicinal Chemistry, 2024).

One data set concerns L6 rat myoblasts. As to the kind of experiment: OCR Seahorse assay (oxygen consumption rate, mitochondrial uncoupling). The settings on record: for Emax at 200 µM: L6, read-out: % of BAM15 OCR, L6 myoblasts.
A short description of another data set: in vivo. The settings on record: male, C57BL/6, mouse, plasma, po, 10 mg/kg.
Where [1] appears, read: Rattus norvegicus, integrated area under OCR dose curve above baseline relative to BAM15 of same experiment, NA = No Activity, highest tested concentration 200 μM.

Protocol for L6 rat myoblasts: With 7 and 9 derivatives in hand, we screened for mitochondrial uncoupling activity as a function of oxygen consumption rate (OCR). […] OCR was measured using an Agilent Seahorse XF24 or XFe96 Analyzer (Agilent Technologies, Santa Clara, CA). L6 myoblasts were seeded in a Seahorse 24 or 96-well tissue culture plate at a density of 3.5 × 10^4 cells/well. The cells were then allowed to adhere overnight. […] Compounds were injected during the assay, and OCR was measured using 2 min measurement periods. Cells were treated with a single drug concentration per well and measured over a 90 min period. Two wells were used per condition and, where applicable, results from multiple plates were averaged together. The first three measurements after injection for each concentration were averaged to produce a dose curve. […] AUC values were also calculated using the same software.
Protocol for in vivo: The exposure levels in plasma were determined by liquid chromatography/mass spectrometry (LC/MS) and half-life was calculated. […] Samples were processed at UNSW for liquid chromatography tandem mass spectrometry (LC–MS/MS) by protein precipitation into a mixture of acetonitrile/methanol solution (AcN-MeOH, 9:1). Seven μL of plasma was precipitated in 100 μL of AcN-MeOH, followed by centrifugation at 18,000g for 10 min and collection of the supernatant for analysis. […] Chromatographic separation was achieved using an ACUITY UPLC BEH, C18 column (Waters, WT186002350, USA). Mobile phase A consisted of 0.1% v/v formic acid in HLPC grade water, while mobile phase B consisted of 0.1% v/v formic acid in ACN. Electrospray ionization (ESI) was performed in negative mode. […] Pharmacokinetic properties were calculated using PKSolver add-in tool (Excel).

Turning to `Oc1c(Nc2ccc(-c3cccc(F)c3)cc2)cnc2nonc12` [7al, 6-((3′-Fluoro-[1,1′-biphenyl]-4-yl)amino)-[1,2,5]oxadiazolo[3,4-b]pyridin-7-ol], a half-maximal effect in the data set with L6 rat myoblasts (Rattus norvegicus, L6) (EC50) was put at 1.2 ± 0.1 µM. Moreover, in the data set with L6 rat myoblasts (setting [1]), the Emax at 200 µM was determined as 36%. Besides, in the data set “in vivo”, the peak concentration (Cmax) (in general, the peak of the concentration-time curve) at 24 h is 4 µM and the half-life (usually the time in which the quantity being followed falls by half) at 24 h was 54 ± 20.4 min.

In the case of `Oc1c(Nc2ccc(-c3ccc(Cl)cc3)cc2)cnc2nonc12` [7ap, 6-((4′-Chloro-[1,1′-biphenyl]-4-yl)amino)-[1,2,5]oxadiazolo[3,4-b]pyridin-7-ol], in the data set on L6 rat myoblasts (Rattus norvegicus, L6), the 50% effective concentration (EC50) (usually the concentration needed to bring the measured effect to its halfway point) was 0.9 ± 0.1 µM. In the data set on L6 rat myoblasts (setting [1]), the Emax at 200 µM is < 50%. In addition, in the data set “in vivo”, the peak level (Cmax at 24 h) was 4 µM and the half-life at 24 h is 108 ± 15 min.

Regarding `Oc1c(Nc2cccc(C(F)(F)F)c2F)cnc2nonc12` [7ab, 6-((2-Fluoro-3-(trifluoromethyl)phenyl)amino)-[1,2,5]oxadiazolo[3,4-b]pyridin-7-ol], in the data set with L6 rat myoblasts (Rattus norvegicus, L6), the half-maximal effective concentration (EC50) stood at 43 ± 5.2 µM. The Emax at 200 µM with L6 rat myoblasts (setting [1]) worked out at 71%.

In turn, `Oc1c(Nc2ccc(F)c(F)c2F)cnc2nonc12` [7y, 6-((2,3,4-Trifluorophenyl)amino)-[1,2,5]oxadiazolo[3,4-b]pyridin-7-ol] displayed an EC50 with L6 rat myoblasts (Rattus norvegicus, L6) of 44 ± 3.6 µM. For the same compound, the Emax at 200 µM with L6 rat myoblasts (setting [1]) was 68%.

Regarding `Oc1c(-c2ccc(-c3ccc(F)cc3)cc2)cnc2nonc12` [9h, 6-(4′-Fluoro-[1,1′-biphenyl]-4-yl)-[1,2,5]oxadiazolo[3,4-b]pyridin-7-ol], the “uncoupling (OCR) activity in words” value in the data set on L6 rat myoblasts (L6 myoblasts) is “inactive”.

Turning to `Oc1c(Nc2ccc(-c3ccc(F)cc3)cc2)cnc2nonc12` [7ao, 6-((4′-Fluoro-[1,1′-biphenyl]-4-yl)amino)-[1,2,5]oxadiazolo[3,4-b]pyridin-7-ol], the EC50 in the data set with L6 rat myoblasts (Rattus norvegicus, L6) is 1.7 ± 0.2 µM. Moreover, the Emax at 200 µM in the data set on L6 rat myoblasts (setting [1]) is < 50%. Also, in “in vivo”, the Cmax at 24 h worked out at 6 µM and the half-life at 24 h was 54 ± 4.2 min.

Consider `CCc1ccc(Nc2cnc3nonc3c2O)cc1` [7c, 6-((4-Ethylphenyl)amino)-[1,2,5]oxadiazolo[3,4-b]pyridin-7-ol], for which a half-maximal effect in the data set with L6 rat myoblasts (Rattus norvegicus, L6) (EC50) was put at 14 ± 1.7 µM. For the same compound, the Emax at 200 µM in the data set with L6 rat myoblasts (setting [1]) came to 50%.

The compound `Oc1c(Nc2cccc(F)c2)cnc2nonc12` [7n, 6-((3-Fluorophenyl)amino)-[1,2,5]oxadiazolo[3,4-b]pyridin-7-ol] showed an EC50 in the data set with L6 rat myoblasts (Rattus norvegicus, L6) of 51 ± 2.6 µM. The Emax at 200 µM in the data set on L6 rat myoblasts (setting [1]) worked out at 55%.

In turn, `Oc1c(Nc2cccc(F)c2F)cnc2nonc12` [7t, 6-((2,3-Difluorophenyl)amino)-[1,2,5]oxadiazolo[3,4-b]pyridin-7-ol] yielded a concentration for a half-maximal effect (EC50) with L6 rat myoblasts (Rattus norvegicus, L6) of 64 ± 3.3 µM. Moreover, the Emax at 200 µM in the data set on L6 rat myoblasts (setting [1]) came out at 60%.

For the compound “6-([1,1′-Biphenyl]-2-ylamino)-[1,2,5]oxadiazolo[3,4-b]pyridin-7-ol [7aj]”, in the data set with L6 rat myoblasts (L6 myoblasts, integrated area under OCR dose curve above baseline relative to BAM15 of same experiment, NA = No Activity, highest tested concentration 200 μM), the “% of BAM15 OCR” value worked out at 20%. For the same compound, the EC50 in the data set on L6 rat myoblasts (OCR in L6 myoblasts, NA = No Activity, highest tested concentration 200 μM) came out at 6 ± 1.2 µM.
